Source: patent US9657046B2, “Methods for the treatment and prevention of inflammatory diseases” (Children's Medical Center Corporation, priority 2010, dated 2017)

Key:
BALB/c mice = assay: OVA-induced AHR in adult mice treated with glycolipid at 2 weeks of age; format: in vivo, mouse; conditions: 2 wk old mice treated i.p. (α-C-GalCer 5 μg, α-GalCer 2 μg, PI57 50 or 100 μg, PBS30 50 μg); AHR induced 6 wks (42 days) later
Method: In FIGS. 6A-6B, two-week-old BALB/c mice (n=6-8/group) (6A) or Tbet^−/− mice (6B) (n=4-6 per group) received 5 μg […] (cGal), 2 μg α-GalCer, or vehicle. After OVA sensitization and challenge, AHR was measured on day 44. In FIG. 6C, donor mice were treated with α-C-GalCer (5 μg) or vehicle i.p. NKT cells served as donors, as in FIG. 4A (n=4 per group). Lung resistance (left) and cell counts in BAL (right) were assessed. […] In FIG. 6E, mice received PI57 (50 μg), α-GalCer (2 μg), or vehicle i.p., and lungs were examined 1 or 14 days later for CD4 and CD8 expression. In FIG. 6F, absolute numbers of CD4^+ NKT and DN NKT subsets from 6E were assessed. In FIG. 6G, BALB/c mice (n=5-8/group) received PI57 or vehicle i.p. Lung resistance (left) and BAL cells (right) were assessed. In FIG. 6H, BALB/c mice treated with PI57 (50 μg), PBS30 (Sphingomonas glycolipid) (50 μg), or vehicle i.p. were assessed for AHR as in 6G. In FIG. 6I, donor mice were treated with PI57 (50 μg) or vehicle i.p. NKT cells served as donors as in FIG. 4A. Lung resistance (left) and BAL cells (right) were assessed (n=4 per group). […] Data represent 2-3 independent experiments. *P<0.05, #P<0.05, ***P<0.001 versus vehicle-OVA (6C, 6G, and 6I), DN NKT saline (6F), and CD4^+ NKT saline (6F).
Induction of AHR and measurement of airway responsiveness in the OVA model.
To induce AHR, BALB/c mice were sensitized with 100 μg of OVA (Sigma-Aldrich) in alum administered i.p (on day 0). After sensitization, mice were exposed to intranasal antigen (50 μg OVA/day) or normal saline for 1 day (day 7; single dose challenge protocol), or for 3 consecutive days (days 7, 8, 9). AHR was assessed on the day after last OVA-challenge. Control mice received i.p. injection of PBS and intranasal administrations of normal saline.

NKT cells = conditions: cited from earlier work
[1] = test system: OVA-sensitized BALB/c mice; assay: Adoptive transfer of NKT cells from glycolipid-treated mice into OVA-sensitized BALB/c recipients (AHR, BAL); format: in vivo, mouse; conditions: OVA-sensitized WT recipients; for AHR in recipients of NKT cells from glycolipid-treated donors: donors treated i.p. at 2 wk (α-C-GalCer 5 μg, PI57 50 μg, or α-GalCer), NKT cells harvested 6 wks later
pulmonary NKT cells = assay: Lung NKT cell subsets (CD4+, DN) by FACS after i.p. glycolipid in 2 week-old mice; format: in vivo, mouse; conditions: i.p. PI57 50 μg or α-GalCer 2 μg, lung 2 wks later
Method: In FIGS. 6A-6B, two-week-old BALB/c mice (n=6-8/group) (6A) or Tbet^−/− mice (6B) (n=4-6 per group) received 5 μg […] (cGal), 2 μg α-GalCer, or vehicle. After OVA sensitization and challenge, AHR was measured on day 44. In FIG. 6C, donor mice were treated with α-C-GalCer (5 μg) or vehicle i.p. NKT cells served as donors, as in FIG. 4A (n=4 per group). Lung resistance (left) and cell counts in BAL (right) were assessed. […] In FIG. 6E, mice received PI57 (50 μg), α-GalCer (2 μg), or vehicle i.p., and lungs were examined 1 or 14 days later for CD4 and CD8 expression. In FIG. 6F, absolute numbers of CD4^+ NKT and DN NKT subsets from 6E were assessed. In FIG. 6G, BALB/c mice (n=5-8/group) received PI57 or vehicle i.p. Lung resistance (left) and BAL cells (right) were assessed. In FIG. 6H, BALB/c mice treated with PI57 (50 μg), PBS30 (Sphingomonas glycolipid) (50 μg), or vehicle i.p. were assessed for AHR as in 6G. In FIG. 6I, donor mice were treated with PI57 (50 μg) or vehicle i.p. NKT cells served as donors as in FIG. 4A. Lung resistance (left) and BAL cells (right) were assessed (n=4 per group). […]
Cells were preincubated with anti-Fey blocking mAb (2.4G2) and washed before staining. […] Cells were analyzed on a BDCanto flow cytometer (BD Biosciences) using FlowJo 8.3.3 software (Tree Star, Inc.).

SMILES	protection against development of OVA-induced AHR (lung resistance) (BALB/c mice)	cytokine synthesis induced (IFN-γ, IL-4) (NKT cells)	airway inflammation (BAL cells, lung sections) in recipients of NKT cells from glycolipid-treated donors ([1]; donors treated i.p. at 2 wk (α-C-GalCer 5 μg, PI57 50 μg))	AHR in recipients of NKT cells from glycolipid-treated donors [1]	number of NKT cells (CD4+ and DN subsets) in the lung (pulmonary NKT cells)
CCCCCCCCCCCCCCCCCCCCCCCCCC(=O)N[C@@H](CC[C@H]1OC(CO)[C@H](O)C(O)C1O)[C@H](O)[C@H](O)CCCCCCCCCCCCCC (stereo partly drawn) [α-C-GalCer, α-C-Galactosylceramide]	protected the mice as adults (42 days later) from the development of OVA-induced AHR	preferentially induces IFN-γ but not IL-4 synthesis	protected recipients against the development of AHR and airway inflammation	protected recipients against the development of AHR	
CCCCCCCCCCCCCCCCCCCCCCCCCC(=O)N[C@@H](CO[C@H]1O[C@H](CO)[C@H](O)[C@H](O)[C@H]1O)[C@H](O)[C@H](O)CCCCCCCCCCCCCC [α-GalCer, α-Galactosylceramide]	did not prevent OVA induced AHR	induces production of both IFN-γ and IL-4		reduced AHR slightly, but this was not statistically significant	increased both CD4^+ and DN NKT cells in the lungs
